From PubChem BioAssay AID248 (DTP/NCI, 2004)
Where “and” joins values, the source holds several entries; their conditions need not be identical. Equal entries are not always repeated. Inconclusive results and toxic doses are left out. Rule as the data show it: active = T/C of 150% or more; inactive = T/C below 125%.

Tested on: L1210 leukemia ip in BDF1 mice, survival T/C
Assay: NCI In Vivo Anticancer Drug Screen. Data for tumor model L1210 Leukemia (intraperitoneal) in B6D2F1 (BDF1) mice
Settings: endpoint: mean survival time, higher = longer survival
Procedure, shortened: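 Transplantable tumor model; survival measured in treated vs vehicle control mice. Value = treated/control.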

[1] = dose: 100.0 mg/kg/injection, schedule: Q04DX003 (ip), vehicle: saline
[2] = dose: 200.0 mg/kg/injection, schedule: Q04DX003 (ip), vehicle: saline
[3] = dose: 400.0 mg/kg/injection, schedule: Q04DX003 (ip), vehicle: saline
[4] = dose: 50.0 mg/kg/injection, schedule: Q04DX003 (ip), vehicle: Klucel (hydroxypropylcellulose) (HPC)
[5] = dose: 100.0 mg/kg/injection, schedule: Q04DX003 (ip), vehicle: Klucel (hydroxypropylcellulose) (HPC)
[6] = dose: 50.0 mg/kg/injection, schedule: Q01DX001 (ip), vehicle: saline
[7] = dose: 100.0 mg/kg/injection, schedule: Q01DX001 (ip), vehicle: saline
[8] = dose: 200.0 mg/kg/injection, schedule: Q01DX001 (ip), vehicle: saline
[9] = dose: 400.0 mg/kg/injection, schedule: Q01DX001 (ip), vehicle: saline
[10] = dose: 100.0 mg/kg/injection, schedule: Q01DX009 (ip), vehicle: Klucel (hydroxypropylcellulose) (HPC)
[11] = dose: 200.0 mg/kg/injection, schedule: Q01DX009 (ip), vehicle: Klucel (hydroxypropylcellulose) (HPC)
[12] = dose: 400.0 mg/kg/injection, schedule: Q01DX009 (ip), vehicle: Klucel (hydroxypropylcellulose) (HPC)
[13] = dose: 50.0 mg/kg/injection, schedule: Q01DX009 (ip), vehicle: saline with Tween-80
[14] = dose: 100.0 mg/kg/injection, schedule: Q01DX009 (ip), vehicle: saline with Tween-80
[15] = dose: 200.0 mg/kg/injection, schedule: Q01DX009 (ip), vehicle: saline with Tween-80

Measured: T/C

C=COC(=O)N1c2ccc(C)cc2C=CC1C#N (centres undefined)
inactive: dose: 100.0 mg/kg/injection, schedule: Q04DX003 (ip), vehicle: gum acacia 92 % of control | dose: 200.0 mg/kg/injection, schedule: Q04DX003 (ip), vehicle: gum acacia 102 % of control | dose: 400.0 mg/kg/injection, schedule: Q04DX003 (ip), vehicle: gum acacia 86 % of control

CC(C)OC(=O)C1OC1c1ccccc1 (centres undefined)
inactive: dose: 100.0 mg/kg/injection, schedule: Q04DX002 (ip), vehicle: saline with Tween-80 109 % of control | dose: 200.0 mg/kg/injection, schedule: Q04DX002 (ip), vehicle: saline with Tween-80 102 % of control | dose: 400.0 mg/kg/injection, schedule: Q04DX002 (ip), vehicle: saline with Tween-80 109 % of control

CC(=O)OCC1OC(n2cnc(C(N)=O)c2N)C(OC(C)=O)C1OC(C)=O (centres undefined)
inactive: dose: 100.0 mg/kg/injection, schedule: Q01DX005 (ip), vehicle: saline 95 % of control | dose: 200.0 mg/kg/injection, schedule: Q01DX005 (ip), vehicle: saline 96 % of control

CC(=O)CCC1(c2cc[n+](C)cc2)CCC(C)(O)C(C(C)=O)C1 (centres undefined)
inactive: [1] 93 % of control | [2] 94 % of control | [3] 100 % of control

CCC(COS(=O)(=O)c1ccc(C)cc1)[N+](=O)[O-] (centres undefined)
inactive: dose: 25.0 mg/kg/injection, schedule: Q04DX003 (ip), vehicle: Klucel (hydroxypropylcellulose) (HPC) 112 % of control | [4] 96 % of control | [5] 86 % of control

COc1ccc(CC(=O)C2C(=O)N(C)c3ccccc32)cc1OC (centres undefined)
inactive: [6] 104 % of control | [7] 102 % of control | [8] 96 % of control | [9] 98 % of control

CC(=O)/C(=C/c1ccccc1)c1ccccc1
inactive: dose: 75.0 mg/kg/injection, schedule: Q01DX009 (ip), vehicle: Klucel (hydroxypropylcellulose) (HPC) 95 % of control | dose: 75.0 mg/kg/injection, schedule: Q04DX003 (ip), vehicle: Klucel (hydroxypropylcellulose) (HPC) 104 % of control | dose: 150.0 mg/kg/injection, schedule: Q01DX009 (ip), vehicle: Klucel (hydroxypropylcellulose) (HPC) 106 % of control | dose: 150.0 mg/kg/injection, schedule: Q04DX003 (ip), vehicle: Klucel (hydroxypropylcellulose) (HPC) 100 % of control | dose: 300.0 mg/kg/injection, schedule: Q01DX009 (ip), vehicle: Klucel (hydroxypropylcellulose) (HPC) 102 % of control | dose: 300.0 mg/kg/injection, schedule: Q04DX003 (ip), vehicle: Klucel (hydroxypropylcellulose) (HPC) 104 % of control

CCCC(CCC)CCCCC(CCC)CCC
inactive: dose: 75.0 mg/kg/injection, schedule: Q01DX001 (ip), vehicle: saline 96 % of control | dose: 150.0 mg/kg/injection, schedule: Q01DX001 (ip), vehicle: saline 96 % of control | dose: 300.0 mg/kg/injection, schedule: Q01DX001 (ip), vehicle: saline 94 % of control

OCC(c1ccccc1)C(O)Cc1ccccc1 (centres undefined)
inactive: dose: 100.0 mg/kg/injection, schedule: Q01DX001 (ip), vehicle: carboxymethylcellulose (CMC) 97 % of control | dose: 200.0 mg/kg/injection, schedule: Q01DX001 (ip), vehicle: carboxymethylcellulose (CMC) 95 % of control | dose: 400.0 mg/kg/injection, schedule: Q01DX001 (ip), vehicle: carboxymethylcellulose (CMC) 101 % of control

COc1ccc(C)cc1NC(=O)Nc1ccccc1F
inactive: [10] 97 % of control and 91 % of control | [11] 89 % of control | [12] 92 % of control and 101 % of control

CN1CCN(Cc2nc3cccc4c3c([n+]2[O-])-c2ccccc2-4)CC1
inactive: dose: 12.5 mg/kg/injection, schedule: Q01DX009 (ip), vehicle: saline with Tween-80 101 % of control | dose: 25.0 mg/kg/injection, schedule: Q01DX009 (ip), vehicle: saline with Tween-80 105 % of control | [13] 103 % of control | [14] 114 % of control | [15] 123 % of control

O=C(CNC(=O)Nc1ccc(Cl)c(Cl)c1)N/N=C/c1ccccc1F
inactive: [13] 93 % of control | [14] 89 % of control | [15] 89 % of control

Cc1ncc(-c2ccc([N+](=O)[O-])cc2)o1
inactive: [4] 94 % of control | [5] 102 % of control | dose: 200.0 mg/kg/injection, schedule: Q04DX003 (ip), vehicle: Klucel (hydroxypropylcellulose) (HPC) 94 % of control

COc1ccc(C2(OC(=O)c3ccc([N+](=O)[O-])cc3)C3C=CC2CC3)cc1 (centres undefined)
inactive: dose: 100.0 mg/kg/injection, schedule: Q04DX002 (ip), vehicle: Klucel (hydroxypropylcellulose) (HPC) 87 % of control | dose: 200.0 mg/kg/injection, schedule: Q04DX002 (ip), vehicle: Klucel (hydroxypropylcellulose) (HPC) 107 % of control | dose: 400.0 mg/kg/injection, schedule: Q04DX002 (ip), vehicle: Klucel (hydroxypropylcellulose) (HPC) 90 % of control

O=C(Nc1ccc(C(=O)Cl)cc1)OCCCl
inactive: dose: 100.0 mg/kg/injection, schedule: Q04DX003 (ip), vehicle: saline with Tween-80 96 % of control | dose: 200.0 mg/kg/injection, schedule: Q04DX003 (ip), vehicle: saline with Tween-80 96 % of control | dose: 400.0 mg/kg/injection, schedule: Q04DX003 (ip), vehicle: saline with Tween-80 96 % of control

CC(CO)(CO)N=Cc1ccccc1O.CC(CO)(CO)N=Cc1ccccc1O.[Co]
inactive: [6] 108 % of control | [7] 97 % of control | [8] 106 % of control

CCCCNC(=S)N(CCCC)CCCC
inactive: [1] 96 % of control | [2] 103 % of control | [3] 96 % of control

CC(C)CC(NS(=O)(=O)Cc1ccccc1)C(=O)O (centres undefined)
inactive: dose: 100.0 mg/kg/injection, schedule: Q01DX001 (ip), vehicle: other 105 % of control | dose: 200.0 mg/kg/injection, schedule: Q01DX001 (ip), vehicle: other 107 % of control | dose: 400.0 mg/kg/injection, schedule: Q01DX001 (ip), vehicle: other 96 % of control

CC/C(I)=C(/CC)S(=O)(=O)c1ccc(C)cc1
inactive: [7] 101 % of control | [14] 98 % of control | [8] 103 % of control | [15] 102 % of control | [9] 111 % of control | dose: 400.0 mg/kg/injection, schedule: Q01DX009 (ip), vehicle: saline with Tween-80 98 % of control

O=[N+]([O-])c1cc(S(=O)(=O)c2ccc(Cl)c([N+](=O)[O-])c2)ccc1Cl
inactive: dose: 25.0 mg/kg/injection, schedule: Q01DX009 (ip), vehicle: Klucel (hydroxypropylcellulose) (HPC) 92 % of control | dose: 50.0 mg/kg/injection, schedule: Q01DX009 (ip), vehicle: Klucel (hydroxypropylcellulose) (HPC) 92 % of control | [10] 90 % of control | [11] 92 % of control | [12] 87 % of control

O=C1C(OC(=O)c2ccccc2)=C(c2ccc(O)cc2)C(=O)C(OC(=O)c2ccccc2)=C1c1ccc(O)cc1
inactive: dose: 12.5 mg/kg/injection, schedule: Q01DX Z (ip), vehicle: carboxymethylcellulose (CMC) 94 % of control | dose: 25.0 mg/kg/injection, schedule: Q01DX Z (ip), vehicle: carboxymethylcellulose (CMC) 94 % of control | dose: 50.0 mg/kg/injection, schedule: Q01DX Z (ip), vehicle: carboxymethylcellulose (CMC) 105 % of control | dose: 100.0 mg/kg/injection, schedule: Q01DX Z (ip), vehicle: carboxymethylcellulose (CMC) 102 % of control
